Laboratory results: patent US8987201B2, “Black bear parathyroid hormone and methods of using black bear parathyroid hormone” (Michigan Technological University, priority 2009, dated 2015)
Entries after “also recorded” stand apart in the source; their conditions may differ. Marks after values point to notes of the source that are not given here.

Key:
MC-3T3 cells = assay: Gene expression by real-time PCR in MC-3T3 cells (Example 11); format: cell-based; settings: 100 nM
Method: MC-3T3 cells were incubated in vehicle or 100 nM synthetic bear or human PTH 1-34 for 3 or 6 hours (n=2 or 4). Total RNA was isolated, and cDNA was generated with reverse transcription. Primers for the bone matrix proteins type I collagen and osteocalcin, the pro-apoptotic protein Bax, the anti-apoptotic protein Bcl-2, and the housekeeping genes Gapdh, β-actin, and cyclophillin were designed using PrimerQuest software (Integrated DNA Technologies, Coralville, Iowa). Real-time PCR was performed using the Mx3000P real-time PCR system (Stratagene, LaJolla, Calif.). All samples were measured in duplicate. Gene expression was determined using the relative standard curve method normalized to the geometric mean of the three housekeeping genes (Gapdh, β-actin, and cyclophillin). Apoptosis-related genes were analyzed as the expression ratio of Bax/Bcl-2, since a decrease in this ratio is associated with decreased apoptosis in vitro.

Male Swiss-Webster mice [1] = assay: Trabecular bone structure and mineralization in the proximal tibia (micro-computed tomography); format: in vivo, mouse; settings: PTH 1-34 study: 11 wk old mice, 8 weeks, proximal tibia, normalized by body mass
Excerpt: (§1) All handling procedures and experiments were approved by the Michigan Technological University Institutional Animal Care and Use Committees. Male Swiss-Webster mice were obtained from a commercial breeder (Harlan, Indianapolis, Ind.). All animals were maintained on a 12-h light/12-h dark cycle, and were permitted free access to water and food containing 0.95% calcium (Purina Rodent Diet #5001).
(§2) In the first experiment, 11 wk old mice received daily (5 days/week) subcutaneous injections of 2.5 nmol/kg PTH 1-34 (hPTH 1-34 or bbPTH 1-34) or acidic saline vehicle (0.15 M NaCl+0.001 N HCl) for 8 weeks (n=10 mice/group). In the second experiment, 12 wk old mice received daily (5 days/week) subcutaneous injections of 2.5 nmol/kg PTH 1-84 (hPTH 1-84 or bbPTH 1-84) or acidic saline vehicle for 8 weeks (n=10 mice/group). All PTH- and vehicle-treated animals received subcutaneous injections of calcein at a dosage of 10 mg/kg on days 12 and 3 before death to label mineralizing bone surfaces. Twenty-four hours following the last treatment injection, mice were sacrificed by carbon dioxide asphyxiation. Right femurs were fixed in 10% neutral buffered formalin. Left femurs were wrapped in 0.15M saline soaked gauze and stored at −20 deg C. Left tibias were stored in 70% ethanol at 4 deg C.
Trabecular bone architecture and mineralization were evaluated in the left proximal tibial metaphysis (0.7 mm distal to the growth plate) using micro-computed tomography. Tibias from experiment 1 were scanned on a μCT35 scanner (Scanco Medical AG, Basserdorf, Switzerland) at 3.5 μm (high) resolution. Tibias from experiment 2 were scanned on a μCT40 scanner (Scanco Medical AG, Basserdorf, Switzerland) at 7 μm (high) resolution. Bones were scanned in 70% ethanol. Trabecular bone volume fraction (BV/TV, %), trabecular number (Tb.N, mm^−1), trabecular thickness (Tb.Th, m), trabecular separation (Tb.Sp, m), trabecular apparent mineral density (App.Mn.Dn, mgHA/cm^3) and trabecular tissue mineral density (Mat.Mn.Dn, mgHA/cm^3) were computed using the manufacturer's software.
(§3) All bone geometrical, architectural, and mineral properties were normalized by body mass to account for potential variation in animal size (31-33). Trabecular bone properties quantified by micro-computed tomography were compared by ANOVA between vehicle, bear, and human PTH-treated mice within each study (PTH 1-34 or PTH 1-84). The microCT parameters were not directly compared between the PTH 1-34 and PTH 1-84 studies because analyses were conducted on different microCT machines. For all other bone properties, all six experimental groups (from both the PTH 1-34 and PTH 1-84 studies) were compared with ANOVA and Fisher's PLSD. A significance of p<0.05 was used for all comparisons.

Male Swiss-Webster mice [2] = assay: Cortical bone mineral content (ash fraction) and geometrical properties of the femur; format: in vivo, mouse; settings: femoral midshaft, 2.5 nmol/kg s.c., 8 weeks, normalized by body mass, SD in parentheses
Excerpt: as §1, §2
(§4) Following the bending test, the left femoral diaphyses were ashed in a furnace to determine mineral content (ash fraction). Right femoral diaphyses were embedded in methyl methacrylate and sectioned with a diamond saw to expose the midshaft cross-section. Images of the midshaft cross-sections were captured using a digital camera (Spot Insight QE, Diagnostic Instruments Inc., Sterling Heights, Mich.), and Scion Image analysis software (Scion Corporation, Frederick, Md.) was used to calculate the periosteal area (Ps.Ar), cortical area (Ct.Ar), and endosteal area (Es.Ar) for each sample. Cortical bone thickness (Ct.Th) was calculated in 0.1 mm increments for each anatomical quadrant and for the entire cross-section using image analysis software (Bioquant Osteo, Nashville, Tenn.). Thin sections from the midshaft of the right femur were ground to a thickness of 50 μm and mounted on glass slides. Images of calcein labels were captured at 100× magnification and periosteal and endosteal mineral apposition rates (Ps.MAR and Es.MAR, respectively) and mineralizing surfaces (Ps.MS/BS and Es.MS/MS) were quantified (Bioquant) for each femur.
as §3

Male Swiss-Webster mice [3] = assay: Cortical bone dynamic histomorphometry in the femur (calcein labels); format: in vivo, mouse; settings: femoral midshaft, 2.5 nmol/kg s.c., 8 weeks, SD in parentheses
Excerpt: as §1, §2, §4, §3

procollagen-1 mRNA = settings: Nasu et al., 1998; cited from earlier work
male mice = settings: Sakai et al. 1999, cited from earlier work
rats = settings: Tashjian et al. 2008; cited from earlier work

Q: Which results are given for human PTH 1-34 [hPTH 1-34]?
A: expression ratio of Bax/Bcl-2 (MC-3T3 cells; 3 hours, n=4, bear vs human p=0.047): increases; expression of type I collagen compared to the vehicle control (MC-3T3 cells; 6 hours): did not affect; expression of osteocalcin compared to the vehicle control (MC-3T3 cells; 6 hours, n=2): substantially upregulated; also recorded: upregulate; BV/TV (Male Swiss-Webster mice [1]; 2.5 nmol/kg s.c. daily 5 days/week): 1.35 %/kg; App. Mn. Dn (Male Swiss-Webster mice [1]; 2.5 nmol/kg s.c.): 1783 mgHA/(cm^3*kg); Mat. Mn. Dn. (Male Swiss-Webster mice [1]; 2.5 nmol/kg s.c.): 31281 mgHA/(cm^3*kg); Tb. N (Male Swiss-Webster mice [1]; 2.5 nmol/kg s.c.): 105.0 1/mm*kg; Tb. Sp (Male Swiss-Webster mice [1]; 2.5 nmol/kg s.c.): 9.57 mm/kg; Tb. Th (Male Swiss-Webster mice [1]; 2.5 nmol/kg s.c.): 1.05 mm/kg; Ct.Ar (Male Swiss-Webster mice [2]): 30.7 (3.0) mm^2/kg; Ct.Th (Male Swiss-Webster mice [2]): 2.22 (0.20)^b mm/kg; Es.Ar (Male Swiss-Webster mice [2]): 24.7 (3.7) mm^2/kg; Ps.Ar (Male Swiss-Webster mice [2]): 55.3 (5.2)^b,c mm^2/kg; Endosteal MAR (Male Swiss-Webster mice [3]): 0.56 (0.18); Endosteal MS/BS (Male Swiss-Webster mice [3]): 39.3 (17.7); Periosteal MAR (Male Swiss-Webster mice [3]): 0.53 (0.21); Periosteal MS/BS (Male Swiss-Webster mice [3]): 24.0 (13.8); production of procollagen-1 mRNA (procollagen-1 mRNA): down-regulates; trabecular thickness (Tb.Th) or mineral apposition rates (MAR) in the proximal tibia (male mice; daily injections of 1 nmol/kg for 6 weeks): did not affect; trabecular thickness (Tb.Th) and mineral apposition rates (MAR) in the proximal tibia (male mice; higher molar dosage (˜10 nmol/kg)): increased; dose shown to be carcinogenic in rats (rats): 5 µg/kg
